Tests used:
[1] = test system: swimming-induced immobility in mice; experiment: Immobility induced by forced swimming; assay type: in vivo; details: last four minutes of six, oral, two administrations six hours and three hours before
Source text: One of the tests regarded as being most significant for assessing the activity of antidepressant substances is the forced swimming test in the mouse, which measures the changes in swimming-induced immobility which the various test substances produce (Borsini, F., Psychopharmacology, 94, 147, 1988). In these tests, the technique described by Persolt was adopted (Persolt, R. D., Eur. J. Pharmacol., 57, 201, 1979—Persolt, R. D., Arch. Int. Pharmacology, 229, 327, 1977) using ten […] per group. The animals were placed in beakers measuring 14 cm in height and approximately 12 cm in internal diameter which were filled with water (20-22° C.) up to 7.5 cm from the rim and then left there for six minutes. The duration of the immobility was calculated during the last four minutes. The mice were considered immobile when they performed only the movements necessary to keep themselves afloat on the water.
The substances tested were administered orally in two administrations six hours and three hours prior to the start of the experiment.

[2] = test system: motor exploration activity in the mouse; experiment: Exploratory activity in mice (Hole Board Test); assay type: in vivo
Protocol: This reduction is not related to sedation caused by the drug in the animal and can be offset using anxiolytic agents.
Using the technique described by Boissier (Boissier J. R., Physiol. Behav., 2. 447. 1967), tests (Hole Board Test) were conducted in order in a group of mice to ascertain whether the reduction in motor exploration activity induced in the animals by low-dose amphetamine (1 mg/kg i.p.) could be corrected by the oral administration of a carnitine mixture (consisting of a combination of L-carnitine+acetyl L-carnitine+propionyl L-carnitine+isovaleryl L carnitine in the same weight ratio to one another), or of acetyl L-carnitine, or Hypericum extract, or hypericin, or various combinations of these products.

[3] = test system: mice descending from platform; experiment: Platform Test in mice; assay type: in vivo; details: ten animals per group, carnitine mixture or acetyl L-carnitine 400 mg/kg, Hypericum extract 300 mg/kg, hypericin 1 mg/kg; for % of mice descending from 5 cm: platform 5 cm from the ground; for % of mice descending from 9 cm: platform 9 cm from the ground
Protocol: Ten animals were used per group and the percentage of animals that managed to descend from the platform was calculated. […] It was modified even more by the administration of a combination of these products plus the carnitine mixture (L-carnitine+acetyl L-carnitine+propionyl L-carnitine+isovaleryl L-carnitine present in the same weight ratio to one another, making a total dose of 400 mg/kg) or acetyl L-carnitine 400 mg/kg, neither of which modifies the animals' behaviour when administered alone.

rats and mice = experiment: Toxicology tests, single-dose oral administration; assay type: in vivo; details: 2 g/kg carnitine mixture, 2 g/kg acetyl L-carnitine, 1 g/kg Hypericum extract (approx. 0.3% hypericin), 3 mg/kg hypericin, each alone
[4] = test system: aggression of isolated male mice; experiment: Isolation-induced aggression test; assay type: in vivo; details: treated eight hours and half an hour before test, observation 180 seconds, carnitine mixture or acetyl L-carnitine 400 mg/kg, Hypericum extract 300 mg/kg, hypericin 1 mg/kg
Source text: This method consists in making the mice aggressive by keeping them isolated for twenty-one days in a cage and in assessing, after treatment, the latency time needed to trigger the aggression of the isolated animal when another animal is put in the cage with it. Only animals with latency times of less than 10 seconds before attacking were included in the tests, and the time of attack was taken as the time the isolated animal bit or tried to bite the other animal introduced into the cage.
The observation time was 180 seconds and the experiment was started 30 minutes after administration of the products tested. All isolated animals were treated, both eight hours and half an hour before the test, with carnitine mixture (consisting of a combination of L-carnitine+acetyl L-carnitine+propionyl L-carnitine+isovaleryl L-carnitine in an equiponderal ratio to one another) (400 mg/kg), or with acetyl L-carnitine (400 mg/kg) or with Hypericum extract (300 mg/kg) or with hypericin (1 mg/kg), or with various combinations of these products.

[5] = test system: cerebral (cortex) concentrations of serotonin (5-HT) and hydroxy-indole-acetic acid (5-HIAA); experiment: Protective action against abnormal brain serotonin concentrations induced by fenfluramine; assay type: in vivo, (Sprague-Dawley) male rats; details: CC 400 mg/kg, AC 400 mg/kg, HE 300 mg/kg, HYP 1 mg/kg, two weeks after treatment
Source text: Since changes in concentration of cerebral biogenic amines regulate both excitatory and depressive emotional behaviour states, it was decided, in view of the above-mentioned action of hypericin and Hypericum extracts at catecholamine and particularly serotoninergic receptor level and on the reuptake of serotonin itself, to evaluate changes in cerebral concentrations of serotonin after treatment with Hypericum extracts, hypericin, carnitine mixture or acetyl L-carnitine, alone or in various combinations, in conjunction with treatment with a substance such as fenfluramine, the neurotoxicity of which manifests itself also through a reduction in brain serotonin concentrations. It is well known, in fact, that fenfluramine [N-ethyl-α-methyl-m-(trifluoro-methyl)phenethylamine] exerts a neurotoxic action on the brain, which is identifiable both histologically on the basis of derangement of the cerebral serotoninergic structures and through depletion of serotonin concentrations in the brain.
The tests were conducted using a group of (Sprague-Dawley) male rats which were administered fenfluramine orally at the dose of 5 mg/kg twice daily for 5 days consecutively, either alone or at the same time, and for the same period, as a carnitine mixture (400 mg/kg) (consisting in a combination of L-carnitine+acetyl L-carnitine+propionyl L-carnitine+isovaleryl L-carnitine present in the same weight ratio to one another), or acetyl L-carnitine (400 mg/kg), or Hypericum extract (with a 0.3% hypericin content−300 mg/kg), or hypericin (1 mg/kg), or various combinations of these products at the same doses.
Two weeks after treatment, the animals were sacrificed and the cerebral cortex isolated and subjected to measurement of the cerebral content both of serotonin (5-HT) and of hydroxy-indole-acetic acid (5-HIAA) according to the method described by Wise (Wise, C. D., Anal. Biochem., 18, 94, 1967) and modified by Ricaurte (Ricaurte, G. A., J. Pharmacol. Exptl. Ther., 261, 616, 1992).

[6] = oral treatment together with Amphetamine 1 mg/kg i.p., 30 minutes after amphetamine, CC 400 mg/kg, AC 400 mg/kg, HE 300 mg/kg, HYP 1 mg/kg
[7] = product alone, oral, 5 days, FE 5 mg/kg twice daily
[8] = together with fenfluramine (FE) 5 mg/kg oral twice daily for 5 days

## CC(=O)O[C@H](CC(=O)[O-])C[N+](C)(C)C [Acetyl L-carnitine, acetyl L-carnitine]
[1]
  Immobility time: 204 ± 8
[2]; [6]
  Motor exploration activity, variations compared to controls: −48
[3]
  % of mice descending from 5 cm: 70%
  % of mice descending from 9 cm: 0%
Rats and mice
  toxic effects or mortality: lack of toxic effects or mortality
[4]
  Latency time of attack: 14 ± 3 s
[5]; [7]
  Cerebral (cortex) concentrations 5-HIAA: 0.28 ± 0.012 ng/mg tissue
  Cerebral (cortex) concentrations 5-HT: 0.35 ± 0.020 ng/mg tissue
[5]; [8]
  Cerebral (cortex) concentrations 5-HIAA: 0.15 ± 0.019 ng/mg tissue
  Cerebral (cortex) concentrations 5-HT: 0.18 ± 0.011 ng/mg tissue

## CC(N)Cc1ccccc1 (stereo not drawn) [Amphetamine, amphetamine]
[2]; Amphetamine 1 mg/kg i.p. alone, 30 minutes after administration
  Motor exploration activity, variations compared to controls: −45
[2]; Amphetamine 5 mg/kg i.p. alone, 30 minutes after administration
  Motor exploration activity, variations compared to controls: +55

## CCNC(C)Cc1cccc(C(F)(F)F)c1 (stereo not drawn) [FE, N-ethyl-α-methyl-m-(trifluoro-methyl)phenethylamine]
[5]; [7]
  Cerebral (cortex) concentrations 5-HIAA: 0.14 ± 0.011 ng/mg tissue
  Cerebral (cortex) concentrations 5-HT: 0.17 ± 0.010 ng/mg tissue

## Cc1cc(O)c2c(=O)c3c(O)cc(O)c4c5c(O)cc(O)c6c(=O)c7c(O)cc(C)c8c1c2c(c34)c(c78)c65 [Hypericin, 1,3,4,6,8,13-hexahydroxy-10,11-dimethylphenanthro[1,10,9,8-opqra]perylene-7,14-dione]
[1]
  Immobility time: 195 ± 5
[2]; [6]
  Motor exploration activity, variations compared to controls: −5
[3]
  % of mice descending from 5 cm: 90%
  % of mice descending from 9 cm: 30%
Rats and mice
  toxic effects or mortality: lack of toxic effects or mortality
[4]
  Latency time of attack: 100 ± 9 s
[5]; [7]
  Cerebral (cortex) concentrations 5-HIAA: 0.30 ± 0.030 ng/mg tissue
  Cerebral (cortex) concentrations 5-HT: 0.36 ± 0.019 ng/mg tissue
[5]; [8]
  Cerebral (cortex) concentrations 5-HIAA: 0.25 ± 0.018 ng/mg tissue
  Cerebral (cortex) concentrations 5-HT: 0.28 ± 0.020 ng/mg tissue

— US6346282B1, “Neuroprotective composition for the prevention and/or treatment of nervous and behavioural alterations due to anxiety states or depression, comprising acetyl-L-carnitine and hypericin” (priority 1998, dated 2002)
